Assay results reported in ChEMBL document CHEMBL1201862, “PubChem BioAssay data set” (2004).
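Cultured in 96-well plates, cells were exposed to test compound for 48 hours across five concentrations. GI50 is the concentration that inhibits growth by half.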 Activity calls are given as the source filed them. No stated cut-off is given here; in the data, active = GI50 up to about 1.1 µM and inactive = higher.

Tests used:
Test in all cases: DTP human tumour cell line panel, 48 h
UACC-257 = test system: UACC-257
HT-29 = test system: HT-29
A498 = test system: A498
HCC 2998 = test system: HCC 2998
HCT-116 = test system: HCT-116
NCI-H23 = test system: NCI-H23
DU-145 = test system: DU-145
OVCAR-8 = test system: OVCAR-8
SK-OV-3 = test system: SK-OV-3
M14 = test system: M14
SF-268 = test system: SF-268
CCRF-CEM = test system: CCRF-CEM
RXF 393 = test system: RXF 393
SF-295 = test system: SF-295
SNB-19 = test system: SNB-19
MDA-N = test system: MDA-N
786-0 = test system: 786-0
HOP-62 = test system: HOP-62
SN12C = test system: SN12C
A549 = test system: A549
T47D = test system: T47D
MDA-MB-231 = test system: MDA-MB-231
MDA-MB-435 = test system: MDA-MB-435
OVCAR-3 = test system: OVCAR-3
MOLT-4 = test system: MOLT-4
OVCAR-5 = test system: OVCAR-5
MCF7 = test system: MCF7
K562 = test system: K562
LOX IMVI = test system: LOX IMVI
NCI/ADR-RES = test system: NCI/ADR-RES
ACHN = test system: ACHN
PC-3 = test system: PC-3
SK-MEL-5 = test system: SK-MEL-5
COLO 205 = test system: COLO 205
HOP-92 = test system: HOP-92
TK-10 = test system: TK-10
SF-539 = test system: SF-539
NCI-H226 = test system: NCI-H226
NCI-H522 = test system: NCI-H522
OVCAR-4 = test system: OVCAR-4
Malme-3M = test system: Malme-3M
IGROV-1 = test system: IGROV-1
SR = test system: SR
EKVX = test system: EKVX
UACC-62 = test system: UACC-62
NCI-H460 = test system: NCI-H460
SNB-75 = test system: SNB-75
CAKI-1 = test system: CAKI-1
HL-60 = test system: HL-60
SW-620 = test system: SW-620
KM12 = test system: KM12
Hs-578T = test system: Hs-578T
RPMI-8226 = test system: RPMI-8226
SK-MEL-28 = test system: SK-MEL-28
UO-31 = test system: UO-31
SK-MEL-2 = test system: SK-MEL-2
HCT-15 = test system: HCT-15
U-251 = test system: U-251

C/C(=C/CNc1ncnc2c1ncn2CCC(=O)O)CO
GI50 (UACC-257): > 100 µM (inactive)
GI50 (HT-29): > 100 µM (inactive)
GI50 (A498): > 100 µM (inactive)
GI50 (HCC 2998): > 100 µM (inactive)
GI50 (HCT-116): > 100 µM (inactive)
GI50 (NCI-H23): > 100 µM (inactive)
GI50 (DU-145): > 100 µM (inactive)
GI50 (OVCAR-8): > 100 µM (inactive)
GI50 (SK-OV-3): > 100 µM (inactive)
GI50 (M14): > 100 µM (inactive)
GI50 (SF-268): > 100 µM (inactive)
GI50 (CCRF-CEM): > 100 µM (inactive)
GI50 (RXF 393): > 100 µM (inactive)
GI50 (SF-295): > 100 µM (inactive)
GI50 (SNB-19): > 100 µM (inactive)
GI50 (MDA-N): > 100 µM (inactive)
GI50 (786-0): > 100 µM (inactive)
GI50 (HOP-62): > 100 µM (inactive)
GI50 (SN12C): > 100 µM (inactive)
GI50 (A549): > 100 µM (inactive)
GI50 (T47D): > 100 µM (inactive)
GI50 (MDA-MB-231): > 100 µM (inactive)
GI50 (MDA-MB-435): > 100 µM (inactive)
GI50 (OVCAR-3): > 100 µM (inactive)
GI50 (MOLT-4): > 100 µM (inactive)
GI50 (OVCAR-5): > 100 µM (inactive)
GI50 (MCF7): > 100 µM (inactive)
GI50 (K562): > 100 µM (inactive)
GI50 (LOX IMVI): > 100 µM (inactive)
GI50 (NCI/ADR-RES): > 100 µM (inactive)
GI50 (ACHN): > 100 µM (inactive)
GI50 (PC-3): > 100 µM (inactive)
GI50 (SK-MEL-5): > 100 µM (inactive)
GI50 (COLO 205): > 100 µM (inactive)
GI50 (HOP-92): > 100 µM (inactive)
GI50 (TK-10): > 100 µM (inactive)
GI50 (SF-539): > 100 µM (inactive)
GI50 (NCI-H226): > 100 µM (inactive)
GI50 (NCI-H522): > 100 µM (inactive)
GI50 (OVCAR-4): > 100 µM (inactive)
GI50 (Malme-3M): > 100 µM (inactive)
GI50 (IGROV-1): > 100 µM (inactive)
GI50 (SR): > 100 µM (inactive)
GI50 (EKVX): > 100 µM (inactive)
GI50 (UACC-62): > 100 µM (inactive)
GI50 (NCI-H460): > 100 µM (inactive)
GI50 (SNB-75): > 100 µM (inactive)
GI50 (CAKI-1): > 100 µM (inactive)
GI50 (HL-60): > 100 µM (inactive)
GI50 (SW-620): > 100 µM (inactive)
GI50 (KM12): > 100 µM (inactive)
GI50 (Hs-578T): > 100 µM (inactive)
GI50 (RPMI-8226): > 100 µM (inactive)
GI50 (SK-MEL-28): > 100 µM (inactive)
GI50 (UO-31): > 100 µM (inactive)

Cc1cn(C2CC(N/C(=N/C#N)NCC3OC(n4cnc5c(N)ncnc54)CC3O)C(CO)O2)c(=O)[nH]c1=O (configuration not stated)
GI50 (UACC-257): > 100 µM (inactive)
GI50 (HT-29): > 100 µM (inactive)
GI50 (A498): > 100 µM (inactive)
GI50 (SK-MEL-2): > 100 µM (inactive)
GI50 (HCC 2998): > 100 µM (inactive)
GI50 (HCT-116): > 100 µM (inactive)
GI50 (NCI-H23): > 100 µM (inactive)
GI50 (DU-145): > 100 µM (inactive)
GI50 (OVCAR-8): > 100 µM (inactive)
GI50 (SK-OV-3): > 100 µM (inactive)
GI50 (M14): > 100 µM (inactive)
GI50 (SF-268): > 100 µM (inactive)
GI50 (CCRF-CEM): > 100 µM (inactive)
GI50 (RXF 393): > 100 µM (inactive)
GI50 (HCT-15): > 100 µM
GI50 (SF-295): > 100 µM (inactive)
GI50 (SNB-19): > 100 µM (inactive)
GI50 (MDA-N): > 100 µM (inactive)
GI50 (786-0): > 100 µM (inactive)
GI50 (HOP-62): > 100 µM (inactive)
GI50 (SN12C): > 100 µM (inactive)
GI50 (A549): > 100 µM (inactive)
GI50 (T47D): > 100 µM (inactive)
GI50 (MDA-MB-231): > 100 µM (inactive)
GI50 (MDA-MB-435): > 100 µM (inactive)
GI50 (OVCAR-3): > 100 µM (inactive)
GI50 (MOLT-4): > 100 µM (inactive)
GI50 (OVCAR-5): > 100 µM (inactive)
GI50 (MCF7): 1.04 µM (active)
GI50 (K562): > 100 µM (inactive)
GI50 (LOX IMVI): > 100 µM (inactive)
GI50 (NCI/ADR-RES): > 100 µM (inactive)
GI50 (ACHN): > 100 µM (inactive)
GI50 (PC-3): > 100 µM (inactive)
GI50 (SK-MEL-5): > 100 µM (inactive)
GI50 (COLO 205): > 100 µM (inactive)
GI50 (HOP-92): > 100 µM (inactive)
GI50 (TK-10): > 100 µM (inactive)
GI50 (SF-539): > 100 µM (inactive)
GI50 (NCI-H226): > 100 µM (inactive)
GI50 (NCI-H522): > 100 µM (inactive)
GI50 (OVCAR-4): > 100 µM (inactive)
GI50 (Malme-3M): > 100 µM (inactive)
GI50 (U-251): > 100 µM (inactive)
GI50 (IGROV-1): > 100 µM (inactive)
GI50 (SR): > 100 µM (inactive)
GI50 (EKVX): > 100 µM (inactive)
GI50 (UACC-62): > 100 µM (inactive)
GI50 (NCI-H460): > 100 µM (inactive)
GI50 (SNB-75): > 100 µM (inactive)
GI50 (CAKI-1): > 100 µM (inactive)
GI50 (HL-60): 77.6 µM (inactive)
GI50 (SW-620): > 100 µM (inactive)
GI50 (KM12): > 100 µM (inactive)
GI50 (Hs-578T): > 100 µM (inactive)
GI50 (SK-MEL-28): > 100 µM (inactive)
GI50 (UO-31): > 100 µM (inactive)

COC(=O)C1C2CC3C1C3C2C(=O)OC (configuration not stated)
GI50 (UACC-257): > 100 µM (inactive)
GI50 (HT-29): > 100 µM (inactive)
GI50 (A498): > 100 µM (inactive)
GI50 (SK-MEL-2): > 100 µM (inactive)
GI50 (HCC 2998): > 100 µM (inactive)
GI50 (HCT-116): > 100 µM (inactive)
GI50 (NCI-H23): > 100 µM (inactive)
GI50 (DU-145): > 100 µM (inactive)
GI50 (OVCAR-8): > 100 µM (inactive)
GI50 (SK-OV-3): > 100 µM (inactive)
GI50 (M14): > 100 µM (inactive)
GI50 (SF-268): > 100 µM (inactive)
GI50 (CCRF-CEM): > 100 µM (inactive)
GI50 (RXF 393): > 100 µM (inactive)
GI50 (HCT-15): > 100 µM
GI50 (SF-295): > 100 µM (inactive)
GI50 (SNB-19): > 100 µM (inactive)
GI50 (MDA-N): > 100 µM (inactive)
GI50 (786-0): > 100 µM (inactive)
GI50 (HOP-62): > 100 µM (inactive)
GI50 (SN12C): > 100 µM (inactive)
GI50 (A549): > 100 µM (inactive)
GI50 (T47D): > 100 µM (inactive)
GI50 (MDA-MB-231): > 100 µM (inactive)
GI50 (MDA-MB-435): > 100 µM (inactive)
GI50 (OVCAR-3): > 100 µM (inactive)
GI50 (MOLT-4): > 100 µM (inactive)
GI50 (OVCAR-5): > 100 µM (inactive)
GI50 (MCF7): > 100 µM (inactive)
GI50 (K562): > 100 µM (inactive)
GI50 (LOX IMVI): > 100 µM (inactive)
GI50 (NCI/ADR-RES): > 100 µM (inactive)
GI50 (ACHN): > 100 µM (inactive)
GI50 (PC-3): > 100 µM (inactive)
GI50 (SK-MEL-5): > 100 µM (inactive)
GI50 (COLO 205): > 100 µM (inactive)
GI50 (HOP-92): > 100 µM (inactive)
GI50 (TK-10): > 100 µM (inactive)
GI50 (SF-539): > 100 µM (inactive)
GI50 (NCI-H226): > 100 µM (inactive)
GI50 (NCI-H522): > 100 µM (inactive)
GI50 (OVCAR-4): > 100 µM (inactive)
GI50 (Malme-3M): > 100 µM (inactive)
GI50 (U-251): > 100 µM (inactive)
GI50 (IGROV-1): > 100 µM (inactive)
GI50 (EKVX): > 100 µM (inactive)
GI50 (UACC-62): > 100 µM (inactive)
GI50 (NCI-H460): > 100 µM (inactive)
GI50 (SNB-75): > 100 µM (inactive)
GI50 (CAKI-1): > 100 µM (inactive)
GI50 (SW-620): > 100 µM (inactive)
GI50 (KM12): > 100 µM (inactive)
GI50 (Hs-578T): > 100 µM (inactive)
GI50 (SK-MEL-28): > 100 µM (inactive)
GI50 (UO-31): > 100 µM (inactive)
